In patent US20220111034A1, “VIRUS COMPOSITIONS” (priority 2019, published 2022):

Columns and labels:
CHO cells = experiment: FD-based AFM with virus-functionalized tip on living CHO cells (cocultured with Lec2); format: cell-based; details: 1 mM, same area rescanned, FIG. 14i-l
Protocol: NHS-PEG27-acetal linkers were used to functionalize AFM tips as described (Gruber. Crosslinkers and Protocols for AFM Tip Functionalization. https://wwwjku.at/institut-fuer-biophysik/forschung/linked, 2018; Wildling et al. Linking of sensor molecules with amino groups to aminofunctionalized AFM tips. Bioconjug. Chem. 2011, vol. 22, 1239-1248). AFM tips (PFQNM-LC and MSCT probes, Bruker) were immersed in chloroform for 10 min, rinsed with ethanol, dried with a stream of filtered nitrogen, cleaned for 10 min using an ultraviolet radiation and ozone (UV-0) cleaner (Jetlight), and immersed overnight in an ethanolamine solution (3.3 g of ethanolamine hydrochloride in 6.6 mL of DMSO). […]
Correlative images were acquired on an AFM (Bioscope Catalyst and Bioscope Resolve, Bruker) operated in the PeakForce QNM mode (Nanoscope software v9.2) to conduct FD-based AFM and coupled to an inverted epifluorescence microscope (Zeiss Observer Z.1) as described (Newton et al. 2017, supra; Knoops et al. Specific Interactions Measured by AFM on Living Cells between Peroxiredoxin-5 and TLR4: Relevance for Mechanisms of Innate Immunity. Cell chemical biology 2018, vol. 25, 550-559, e553). […] Overview images of cell surfaces (20-30 μm^2) were recorded at imaging forces of ˜500 pN using PFQNM-LC probes (Bruker) having tip lengths of 17 μm, tip radii of 65 nm, and opening angles of 15°. […]

JAM-A = experiment: Biolayer interferometry (BLI) of JAM-A-reovirus interactions; format: binding; details: 1 mM free glycan
Protocol: Virus binding to JAM-A was measured on a BLItz® (Pall ForteBio) biolayer interferometer equipped with a Ni2+-NTA biosensor (Pall ForteBio). After loading the chip in a 10 mM NiCl2 solution for 2 min and running an initial baseline step in milliQ water (1 min), JAM-A (0.2 mg mL^−1) was immobilized on the exposed Ni^2+ ions via its C-terminal His6 tag for 5 min until the binding signal reached a plateau (complete saturation of the biosensor). Binding of viral particles (T3SA+, T3SA− or ISVP; at 16 nM) in the absence or presence of 1 mM Neu5Ac was measured during a 10 min association step after another baseline step (virus buffer for 1 min). Dissociation was monitored directly after the association step for 10 min during which the virus solution was exchanged with virus buffer. Chip can be regenerated several times by exposing the biosensor to 10 mM Glycine pH 1.7 followed by a neutralization buffer (Kinetics Buffer). The resulting sensorgram (binding over time) was processed and fitted with a nonlinear regression approach using an association and then dissociation fit provided by GraphPad Prism. Virus concentration and time at which dissociation was initiated were constrained to constant values of 16 nM and 17 min, respectively. From that fit, koff and kon were extracted and KD was calculated.

[1] = tested on: cocultured CHO-JAM-A and Lec2-JAM-A cells; experiment: Single particle tracking by dynamic confocal microscopy; format: cell-based
Protocol: A coculture of Lec2-JAM-A mCherry and CHO-JAM-A cells was seeded onto a 47-mm glass-bottomed petri dish (WillCo Wells) 1 or 2 d before the experiment to ensure formation of a confluent monolayer on the day of the experiment. Cells were imaged by laser scanning confocal microscopy using a Zeiss LSM 880 microscope with a 561 nm laser for mCherry and a 488 nm laser for Alexa488 and a 40× oil objective (NA=0.95). All experiments were conducted at room temperature with cells maintained in Ham's F12 culture medium and a gas mixture of synthetic air with 5% CO2 at 95% relative humidity that was infused at 0.1 L min^−1 into the microscopy chamber using a gas humidifier membrane (PermSelect silicone). The humidity was controlled using a humidity sensor (Sensirion). To ensure virus binding (and not internalization), the cells were placed on ice for 30 min before starting the experiment. After finding an area in which both cell types were adjacent (guided by fluorescence), Alexa488-labelled T3SA+ or T3SA− viruses (10^12 particles/mL) diluted in either F12 Ham's culture medium or 1 mM Neu5Ac solution (on ice) were added to the living cells. The fluorescent signal from both dyes (mCherry and Alexa488) as well as the signal from the PMT channel was recorded for a ˜30 min interval immediately after virus injection at a frame-rate of one image every 13.32 seconds. During recording, the focus was kept constant on the upper surface of cells. Fluorescence images were exported as 12-bit TIFF files, merged into a movie, and further processed using ImageJ (National Institutes of Health, Bethesda). Trajectories were harvested and analyzed using MTrackJ, an ImageJ plugin to track moving viral particles in the movie and obtain track statistics. The latter were further processed using Origin.

CC(=O)N[C@H]1[C@H]([C@H](O)[C@H](O)CO)OC(O)(C(=O)O)C[C@@H]1O (some centres unmarked) [Neu5Ac, N-acetylneuraminic acid]
adhesion events of T3SA+ after injection of blocking glycan (CHO cells): significant reduction of adhesion events | influence on T3SA− binding to JAM-A (JAM-A): had no influence | number of T3SA+ particles bound to CHO-JAM-A cells ([1]; 1 mM free SA, FIG. 10g): significantly increased | diffusion potential of T3SA+ particles on the cell surface ([1]; 1 mM glycan injected with viral particles, FIG. 10f): significant decrease of their diffusion potential | effect of free SA on diffusion and bound particles of T3SA− ([1]; 1 mM, FIG. 10g): this effect was not observed
